Where two headings read alike, the source gives them in different places.
What was measured:
[1] = Storage stability of polymorphic forms at room temperature in a sealed vial (XRPD time course); assay type: physicochemical
Description: Form I samples were collected for XR-PD analysis following 0, 7, and 42 days of storage, the results of which are shown in FIG. 10.
The stability of polymorphic Form IV was evaluated over 7 days of storage at room temperature in a sealed vial. Portions of the Form IV samples were collected for XRPD analysis following 0 (Form IV), 3 (Form IV-3D3-storage), and 7 days (Form IV-7D3-storage) of storage, the results of which are shown in FIG. 14.
The stability of polymorphic Form IV was also evaluated following crystallization from a room temperature 2-propanol/THF 95/5 (v/v) solvent system containing 40 mg/ml (Z)-endoxifen. XPRD was collected immediately after recovery and following 15 days storage at room temperature in a sealed vial. FIG. 15 provides the resultant XRPD patterns following 15 days storage (Form IV-2PR/THF-15D-storage) and 0 days storage (Form IV-2PR/THF-0D-storage), as well as an XRPD spectrum of Form IV (Form IV) obtained from 2-propanol recrystallization.
Since the room temperature evaporation in acetone yielded a mixture of polymorphic Form I and Form IV XRPD patterns with a very intense unassigned signal at 16.1° 2θ, the sample was re-measured following 7 days storage in a sealed vial. From top to bottom, FIG. 16 provides XRPD patterns of the acetone-generated polymorphs following 7 (EVRT-ACT-7D-storage) and 0 days of storage (EVRT-ACT-0D-storage), a Form IV spectrum (Form IV), and a Form I (Form I) spectrum, respectively.
Form XVII was further assessed after 3 days storage in a sealed vial at room temperature.
Form XVIII was further reassessed by XRPD following 3 and 7 days storage at room temperature in a sealed vial. The data from these analyses are summarized in FIG. 24, which (from top to bottom) provides the sample following 7 days storage (Form XVIII-7D-storage), the sample following 3 days storage (Form XVIII-3D-storage), and the sample immediately following crystallization (Form XVIII).
Form XIX room temperature stability was evaluated with XRPD. XRPD of a Form XIX sample immediately following crystallization (Form XIX) and following 7 days of storage (Form XIX-7D-storage) are shown in FIG. 26.
The stability of polymorphic Form V was over 10 days of storage at room temperature in a sealed vial. XR-PD was performed following 0, 3, and 10 days storage.
To evaluate Form VI stability, XRPD spectra of a Form VI sample were collected following 0, 3, and 14 days of room temperature storage in a sealed vial. The resulting XRPD patterns of the sample following 0 (Form VI), 3 (Form VI-3D-storage), and 14 days storage (Form VI-14D-storage) are shown in FIG. 30.
The stability of polymorphic Form VII was evaluated over 7 days of storage at room temperature in a sealed vial. Portions of the Form VII samples were collected for XRPD analysis over 7 days of storage, the results of which are shown in FIG. 32.
Form VIII stability over 7 days storage in a sealed vial at room temperature was evaluated with XRPD.
The stability of Form IX generated by precipitation from an ethyl acetate/heptane solvent system (Form IX Recrystallization (1)) was evaluated over 7 days of storage at room temperature. Portions of the Form IX sample were collected following 0 and 7 days of storage in a sealed vial and analyzed by XRPD analysis to identify possible changes in the polymorph.
Form IX stability was separately characterized for crystals generated through the addition of (Z)-endoxifen saturated ethyl acetate to heptane (Form IX Recrystallization (2)), which yielded higher crystallinity Form IX than was afforded by heptane addition to (Z)-endoxifen saturated ethyl acetate.
Form IX stability was further evaluated for crystals generated by precipitation from an acetone/butyl methyl ether (acetone/BME) solvent/antisolvent mixture (Form IX Recrystallization (4)). Portions of the Form IX sample were collected following 0 and 5 days of storage in a sealed vial at room temperature and compared to reference XRPD patterns of Forms VII and IX. […]

[2] = Thermogravimetric analysis (TGA), degradation; assay type: physicochemical
Description: The TGA profile of Form I is shown in the top panel of FIG. 12 with the heat-flow profile in the middle panel of FIG. 12, and the first derivative of the TGA profile in the bottom pane of FIG. 12. […] A weight loss of 0.2% was detected between 140° C. and 180° C., potentially ascribable to solvent release. Degradation of Form I took place above 270° C. The heat-flow profile included two main peaks around 50° C. and 160° C. The first derivative of the TGA profile indicated a greatest decline in the TGA profile occurred around 400° C., and that weight loss occurred around 320° C.

[3] = Mechanical stability: grinding and kneading by ball milling (XRPD); assay type: physicochemical; details: for XRPD pattern after mechanical grinding: 10 minutes ball milling at 30 Hz; for XRPD pattern after kneading: 10 minutes ball milling at 30 Hz with catalytic 2-propanol (2 μl)
Description: Stability tests were performed on mixtures of Form I and Form IV; Form I and Form VII; and Form I, Form IV, and Form VII. In a first mechanical stability test, the polymorphs were analyzed by XRPD following 10 minutes of grinding by ball milling at 30 Hz. In a second mechanical stability test, the polymorphs were analyzed by XRPD following 10 minutes of kneading by ball milling at 30 Hz in the presence of a catalytic amount of 2-propanol (2 μl).

[4] = Stability at various temperatures and relative humidities, seven days (XRPD); assay type: physicochemical; details: 7 days
Description: The stabilities of the polymorphs were also assessed at various temperatures and relative humidities. These analyses were performed by storing 20 mg of polymorph samples for seven days at: (1) 25° C. and 100% relative humidity, (2) 40° C. and 75% relative humidity, (3) 25° C. and 60% relative humidity, and (4) at 60° C. and 75% relative humidity. XRPD was collected on the samples following these incubations and compared to XRPD of the samples prior to storage.

[5] = Slurries with amorphous (Z)-endoxifen (XRPD); assay type: physicochemical; details: for Polymorphic form recovered (XRPD): 22 days stirring at room temperature
Description: Further slurry experiments were performed utilizing amorphous (Z)-endoxifen as an input. 20 mg of amorphous (Z)-endoxifen was suspended in 200 μl of various solvent mixtures. Following 22 days of stirring at room temperature, solid (Z)-endoxifen was recovered from the slurries during centrifugation at 4000 rpm for 3 minutes with a nylon filter (0.22 μm).

[6] = Thermal treatment of Form IV at 90° C. and 50 mbar (XRPD); assay type: physicochemical
Description: To confirm the DSC results, Form IV deterioration was subject to thermal treatment by incubation for 1 hour at 90° C. and 50 mbar, storage for 18 hours at room temperature, and a second incubation for 3.5 hours 90° C. and 50 mbar. XRPD analysis was performed on the sample following the 1 hour incubation at 90° C. and 50 mbar, after the 18 hours of storage at room temperature, and after the final 3.5 hour incubation 90° C. and 50 mbar.

[7] = cited from earlier work
[8] = sample from scaled-up crystallization
[9] = 25° C. and 100% relative humidity
[10] = 40° C. and 75% relative humidity
[11] = 7 days, room temperature, sealed vial

| SMILES | Degradation temperature (TGA) [2] | XRPD pattern after mechanical grinding [3] | XRPD pattern after kneading [3] | Degradation temperature (TGA) [2, 8] | XRPD pattern after storage [4, 9] | XRPD pattern after storage [4, 10] | XRPD change on storage [1, 11] | other results |
| --- | --- | --- | --- | --- | --- | --- | --- | --- |
| CC/C(=C(\c1ccc(O)cc1)c1ccc(OCCNC)cc1)c1ccccc1 [Form IX, (Z)-endoxifen] | above 270 °C | – | – | – | – | – | – | XRPD change on storage ([1]; 5 days, room temperature, sealed vial, Form IX from acetone/butyl methyl ether (Form IX Recrystallization (4))): new signal at 9.1° 2θ, possibly indicating the presence of Form VII as well as partial amorphization of the sample; XRPD change on storage ([1]; 7 days, room temperature, sealed vial, Form IX Recrystallization (1), ethyl acetate/heptane): stable under ambient conditions; XRPD change on storage ([1]; 7 days, room temperature, sealed vial, Form IX Recrystallization (2)): weak XRPD signals ascribable to small amounts of Form I; XRPD change on storage ([1]; 8 days, room temperature, sealed vial, Form IX from room temperature ethyl acetate/heptane 50/50 (v/v) slurries, unassigned signals at 10.1, 11.7, 16.8, 18.5, 19.4, 23.1): these peaks persisted following 8 days of storage; XRPD change on storage ([1]; 13 days, room temperature, sealed vial, Form IX Recrystallization (2)): weak XRPD signals ascribable to small amounts of Form I |
| CC/C(=C(\c1ccc(O)cc1)c1ccc(OCCNC)cc1)c1ccccc1 [Form I, (Z)-endoxifen] | above 270 °C | converted portions of Form I to amorphous endoxifen | converted portions of Form I to amorphous endoxifen | 270 °C | did not induce detectable changes in the Form I XRPD | no significant changes to the XRPD pattern | – | XRPD change on storage ([1]; 0, 7, and 42 days of storage): stable under ambient conditions |
| CC/C(=C(\c1ccc(O)cc1)c1ccc(OCCNC)cc1)c1ccccc1 [amorphous (Z)-endoxifen, (Z)-endoxifen] | – | – | – | – | – | – | – | XRPD change on storage ([1]; 18 days, room temperature): stable and does not convert into other polymorphic forms; Output Main phase [phase] ([5]; SLRT: acetone/tetrahydrofuran 90/10, 100 mg/mL, RT, 22 d, amorphous input): Form I; Polymorphic form recovered (XRPD) ([5]; acetone/tetrahydrofuran slurry): Form I with additional unassigned peaks; Polymorphic form recovered (XRPD) ([5]; ethyl acetate/heptane slurry): Form IX; Polymorphic form recovered (XRPD) ([5]; one of the 2-propanol/tetrahydrofuran slurries): Form IV |
| CC/C(=C(\c1ccc(O)cc1)c1ccc(OCCNC)cc1)c1ccccc1 [Form IV, (Z)-endoxifen] | above 270 °C | Form I with a mild signal at 4.8° 20 ascribable to Form IV | mixture of Form I and Form IV | above 270 °C | Form I with trace of Form IV | Form I with minor traces of Form IV | stable under ambient conditions | XRPD pattern after thermal treatment ([6]; after 1 hour at 90° C. and 50 mbar): Form IV with traces of Form I; XRPD pattern after thermal treatment ([6]; after final 3.5 hour treatment at 90° C. and 50 mbar (following 1 hour at 90° C. and 18 hours at room temperature)): Form IV with traces of Form I; XRPD change on storage ([1]; 15 days, room temperature, sealed vial, sample crystallized from 2-propanol/THF 95/5 (v/v)): maintained a Form IV XRPD pattern following 15 days storage, its XRPD spectrum also exhibited a new signal at 16.1° 2θ |
| CC/C(=C(\c1ccccc1)c1ccc(OCCN(C)C)cc1)c1ccccc1 [tamoxifen, (Z)-2-[4-(1,2-diphenyl-1-butenyl)phenoxy]-N,N-dimethylethanamine] | – | – | – | – | – | – | – | Terminal elimination half-life ([7]; in vivo): 120 to 170 h; Peak concentration time ([7]; post-dose): approximately 5 hours; Reported therapeutic levels of plasma tamoxifen ([7]; subjects dosed with 20 mg of oral tamoxifen): ≥ 30 nM |
| CC/C(=C(\c1ccc(O)cc1)c1ccc(OCCNC)cc1)c1ccccc1 [Form VII, (Z)-endoxifen] | above 270 °C | – | – | – | no significant change to the XRPD pattern | no significant change to the XRPD pattern | stable under ambient conditions | – |
